# In paper PMC4997860, “The Heterodimeric ABC Transporter EfrCD Mediates Multidrug Efflux in Enterococcus faecalis” (Antimicrobial Agents and Chemotherapy, 2016):
# Key:
# Assay in all cases: ATPase modulation in proteoliposomes, malachite green
# Type in all cases: biochemical
# EfrAB = target: T1, EfrAB (Enterococcus faecalis, UniProt Q82ZX7+Q82ZX8); conditions: 20 uM Hoechst 33342; 1 mM ATP, 10 mM MgSO4, pH 7.0, 30°C; bell-shaped curve
# T1 construct: gene EF_2920; full-length heterodimer, N-terminal deca-His tag on first chain cleaved with 3C protease, expressed in L. lactis NZ9000 dlmrA dlmrCD; proteoliposomes
# T1 sequence (Q82ZX8 entry or part of it): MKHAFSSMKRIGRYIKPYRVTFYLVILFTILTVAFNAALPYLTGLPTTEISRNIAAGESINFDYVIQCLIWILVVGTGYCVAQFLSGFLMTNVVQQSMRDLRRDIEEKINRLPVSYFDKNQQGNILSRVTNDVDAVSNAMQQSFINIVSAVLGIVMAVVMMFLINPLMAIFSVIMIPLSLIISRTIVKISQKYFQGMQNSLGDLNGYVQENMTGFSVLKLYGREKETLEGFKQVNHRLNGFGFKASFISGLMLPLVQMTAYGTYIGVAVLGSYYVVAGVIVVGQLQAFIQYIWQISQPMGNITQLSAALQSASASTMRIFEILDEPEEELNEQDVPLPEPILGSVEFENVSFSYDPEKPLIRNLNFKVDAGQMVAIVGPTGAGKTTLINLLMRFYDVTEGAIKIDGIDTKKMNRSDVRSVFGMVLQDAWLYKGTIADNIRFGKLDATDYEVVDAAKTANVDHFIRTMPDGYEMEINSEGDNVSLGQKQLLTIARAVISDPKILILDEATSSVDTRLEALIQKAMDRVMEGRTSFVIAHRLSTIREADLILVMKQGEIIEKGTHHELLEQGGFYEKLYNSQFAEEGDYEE
# T1 sequence (Q82ZX7 entry or part of it): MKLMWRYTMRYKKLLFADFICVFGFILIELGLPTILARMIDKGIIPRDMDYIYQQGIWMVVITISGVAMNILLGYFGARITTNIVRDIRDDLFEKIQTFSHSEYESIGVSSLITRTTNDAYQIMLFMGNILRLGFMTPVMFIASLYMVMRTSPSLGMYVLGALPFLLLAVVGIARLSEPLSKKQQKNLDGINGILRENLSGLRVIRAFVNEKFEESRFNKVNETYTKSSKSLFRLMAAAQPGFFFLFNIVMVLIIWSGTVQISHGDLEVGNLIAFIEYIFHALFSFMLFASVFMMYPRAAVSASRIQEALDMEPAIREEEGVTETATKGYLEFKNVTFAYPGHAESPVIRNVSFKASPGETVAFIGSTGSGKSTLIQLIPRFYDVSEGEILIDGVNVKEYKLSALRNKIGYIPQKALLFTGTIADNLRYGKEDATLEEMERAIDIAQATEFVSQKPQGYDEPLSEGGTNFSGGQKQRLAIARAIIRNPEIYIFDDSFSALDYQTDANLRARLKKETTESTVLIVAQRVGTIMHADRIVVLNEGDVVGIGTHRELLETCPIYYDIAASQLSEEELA
# EfrEF [1] = target: T2, EfrEF (Enterococcus faecalis, UniProt Q832J9+Q832K0); conditions: 2.5 uM Hoechst 33342; 1 mM ATP, 10 mM MgSO4, pH 7.0, 30°C; bell-shaped curve
# T2 construct: gene EF_2226; full-length heterodimer, N-terminal deca-His tag on first chain cleaved with 3C protease, expressed in L. lactis NZ9000 dlmrA dlmrCD; proteoliposomes
# T2 sequence (Q832K0 entry or part of it): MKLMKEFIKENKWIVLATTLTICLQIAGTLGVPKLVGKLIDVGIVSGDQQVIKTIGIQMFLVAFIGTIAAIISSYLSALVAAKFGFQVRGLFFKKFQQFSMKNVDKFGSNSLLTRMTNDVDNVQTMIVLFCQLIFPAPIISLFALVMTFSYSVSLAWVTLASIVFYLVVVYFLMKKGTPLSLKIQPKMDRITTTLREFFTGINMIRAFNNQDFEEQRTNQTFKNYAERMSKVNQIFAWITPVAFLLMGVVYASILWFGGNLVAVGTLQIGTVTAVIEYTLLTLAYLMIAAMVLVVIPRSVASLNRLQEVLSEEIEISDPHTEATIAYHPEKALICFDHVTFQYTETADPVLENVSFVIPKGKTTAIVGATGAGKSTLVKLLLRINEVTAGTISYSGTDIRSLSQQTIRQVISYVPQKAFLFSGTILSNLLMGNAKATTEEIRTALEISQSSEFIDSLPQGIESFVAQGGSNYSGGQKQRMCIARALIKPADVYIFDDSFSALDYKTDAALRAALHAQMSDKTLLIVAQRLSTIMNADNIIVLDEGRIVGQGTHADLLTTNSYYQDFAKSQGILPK
# T2 sequence (Q832J9 entry or part of it): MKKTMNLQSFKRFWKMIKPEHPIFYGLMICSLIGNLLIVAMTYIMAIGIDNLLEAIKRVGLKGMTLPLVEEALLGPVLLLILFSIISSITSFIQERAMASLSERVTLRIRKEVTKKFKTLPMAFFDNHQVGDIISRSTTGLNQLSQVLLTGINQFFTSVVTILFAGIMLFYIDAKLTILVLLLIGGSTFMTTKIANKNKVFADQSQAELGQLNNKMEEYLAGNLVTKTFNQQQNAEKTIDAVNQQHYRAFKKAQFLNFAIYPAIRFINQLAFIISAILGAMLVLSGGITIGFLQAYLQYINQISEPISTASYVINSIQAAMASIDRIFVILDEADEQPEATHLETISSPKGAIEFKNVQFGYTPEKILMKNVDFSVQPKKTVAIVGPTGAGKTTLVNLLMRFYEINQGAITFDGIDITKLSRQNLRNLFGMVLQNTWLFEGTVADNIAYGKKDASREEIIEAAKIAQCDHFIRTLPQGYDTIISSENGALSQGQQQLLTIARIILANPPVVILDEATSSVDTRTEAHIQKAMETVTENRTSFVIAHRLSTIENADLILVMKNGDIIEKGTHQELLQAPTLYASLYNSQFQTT
# EfrCD = target: T3, EfrCD (Enterococcus faecalis, UniProt Q837P4+Q837P5); conditions: 0.1-200 uM drug; 1 mM ATP, 10 mM MgSO4, pH 7.0, 30°C; bell-shaped curve
# T3 construct: gene EF_0789; full-length heterodimer, N-terminal deca-His tag on EfrC cleaved with 3C protease (tag present in cells), expressed in L. lactis NZ9000 dlmrA dlmrCD; proteoliposomes
# T3 sequence (Q837P5 entry or part of it): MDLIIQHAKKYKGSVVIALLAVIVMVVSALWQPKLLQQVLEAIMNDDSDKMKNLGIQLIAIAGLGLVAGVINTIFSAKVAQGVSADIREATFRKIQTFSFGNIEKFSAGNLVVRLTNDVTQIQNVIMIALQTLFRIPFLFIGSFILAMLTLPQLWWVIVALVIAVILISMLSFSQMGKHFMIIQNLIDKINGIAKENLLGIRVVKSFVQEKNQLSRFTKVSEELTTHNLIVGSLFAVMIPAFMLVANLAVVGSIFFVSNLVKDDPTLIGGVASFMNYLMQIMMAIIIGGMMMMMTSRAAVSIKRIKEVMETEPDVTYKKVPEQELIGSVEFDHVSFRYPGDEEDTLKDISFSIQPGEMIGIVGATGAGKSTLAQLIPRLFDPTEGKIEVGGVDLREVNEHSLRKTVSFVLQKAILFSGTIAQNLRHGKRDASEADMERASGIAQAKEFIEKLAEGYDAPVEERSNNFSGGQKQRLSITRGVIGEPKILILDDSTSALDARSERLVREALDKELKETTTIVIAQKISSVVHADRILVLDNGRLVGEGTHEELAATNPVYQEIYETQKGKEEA
# T3 sequence (Q837P4 entry or part of it): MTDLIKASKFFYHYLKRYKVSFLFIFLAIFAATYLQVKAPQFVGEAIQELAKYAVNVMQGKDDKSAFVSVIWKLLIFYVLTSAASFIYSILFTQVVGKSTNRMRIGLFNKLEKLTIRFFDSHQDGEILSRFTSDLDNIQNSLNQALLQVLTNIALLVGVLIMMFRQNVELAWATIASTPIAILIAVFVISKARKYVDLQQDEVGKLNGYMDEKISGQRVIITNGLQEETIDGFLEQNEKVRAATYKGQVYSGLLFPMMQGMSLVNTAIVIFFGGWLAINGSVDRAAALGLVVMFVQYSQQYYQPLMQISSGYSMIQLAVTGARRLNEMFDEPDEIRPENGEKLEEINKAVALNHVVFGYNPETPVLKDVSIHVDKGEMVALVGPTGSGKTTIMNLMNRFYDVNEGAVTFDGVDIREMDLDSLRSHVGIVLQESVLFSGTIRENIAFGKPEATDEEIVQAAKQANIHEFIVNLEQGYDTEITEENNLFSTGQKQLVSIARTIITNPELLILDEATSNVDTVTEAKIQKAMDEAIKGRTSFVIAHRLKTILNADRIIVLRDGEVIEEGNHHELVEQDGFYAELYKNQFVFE
# EfrEF [2] = target: T2, EfrEF; conditions: 0.1-200 uM drug; 1 mM ATP, 10 mM MgSO4, pH 7.0, 30°C; bell-shaped curve
structure (smiles),measurement,setting,value
CCOc1ccc(-c2nc3ccc(-c4nc5ccc(N6CCN(C)CC6)cc5[nH]4)cc3[nH]2)cc1 [Hoechst 33342],maximal ATPase stimulation (basal = 100%),EfrAB,165%
same,maximal ATPase stimulation (basal = 100%),EfrEF [1],130%
COc1cccc2c1C(=O)c1c(O)c3c(c(O)c1C2=O)C[C@@](O)(C(C)=O)C[C@@H]3O[C@H]1C[C@H](N)[C@H](O)[C@H](C)O1 [daunorubicin],drug-modulated ATPase activity,EfrCD,a strong response in the form of a bell-shaped curve was seen for EfrCD
CC[n+]1c(-c2ccccc2)c2cc(N)ccc2c2ccc(N)cc21 [ethidium],drug-modulated ATPase activity,EfrEF [2],"For ethidium, a bell-shaped curve with a large magnitude was observed for EfrEF"
